{"source": "patent US9358213B2", "about": "“Pharmaceutical compositions of duloxetine” (priority 2007, dated 2016)", "origin": "cited, not measured here"}
{"smiles": "CNCC[C@H](Oc1cccc2ccccc12)c1cccs1", "note": "[Duloxetine]", "values": [{"measurement": "stability at alkaline pH", "setting": "alkaline pH", "result": "stable"}, {"measurement": "dosage hydrolyzed to 1-naphthol", "setting": "pH of 1.0, within one hour", "result": 50, "unit": "%"}, {"measurement": "dosage degrades to 1-naphthol", "setting": "pH of 2.0, in one hour", "result": 10, "unit": "%"}, {"measurement": "time for 10% degradation", "setting": "pH of 4.0", "result": "up to 63 hours"}]}
